Molecules are shown by their SMILES.

The test system of the experiment is HpaM. The conditions noted are these: read-out: apparent Km; 50 mM PBS pH 7.0, 0.2 mM FAD, 5HPA as co-substrate, 25°C.

Take `NC(=O)C1=CN([C@@H]2O[C@H](COP(=O)(O)OP(=O)(O)OC[C@H]3O[C@@H](n4cnc5c(N)ncnc54)[C@H](O)[C@@H]3O)[C@@H](O)[C@H]2O)C=CC1` [NADH]: the Km worked out at 37.8 ± 3.4 µM.

Values taken from doi:10.1101/171595v1 (biorxiv, 2017).
